Values quoted from earlier work, collected in patent publication US20040087576A1, “Antimnemonic therapy for hypermemory syndromes” (priority 2002, published 2004).

How the values were obtained:
[1] = tested on: reconsolidation of retrieved memories; details: in vivo
conditioned fear = details: in vivo
rat fear-conditioning = details: rats
[2] = patients; doses of 100-500 mg/day
PTSD symptoms = details: patients; 10-day course, 40 mg four times daily, versus placebo; assessed 3 months after the trauma
emotion-related memory = details: rats; post-training administration

Q: Which “amnesia by blocking the reconsolidation of retrieved memories” value (“amnesia by blocking the reconsolidation” for short) [1] does the source give for `NC(CCCP(=O)(O)O)C(=O)O` (stereo not drawn) [AP5] here?
A: The value was “induce amnesia by blocking the reconsolidation of retrieved memories”.

Q: Which “extinction of conditioned fear” value (conditioned fear) does the source give for `N[C@@H]1CONC1=O` [D-cycloserine] here?
A: The value was “facilitate the extinction of conditioned fear”.

Q: For `C[C@]12N[C@H](Cc3ccccc31)c1ccccc12` [MK-801], which “amnesia by blocking the reconsolidation” value [1] is on record?
A: The value was “induce amnesia by blocking the reconsolidation of retrieved memories”.

Q: What does the source list for `COc1ccc(C[C@H]2NC[C@H](O)[C@H]2OC(C)=O)cc1` [anisomycin]?
A: reconsolidation of reactivated memories (rat fear-conditioning; cue 1 or 14 days after conditioning, drug immediately after cue, tested 24 hours later): blocked reconsolidation of reactivated memories; fear response to the cue (rat fear-conditioning; cue presented a further twenty four hours after treatment): did not display the fear response

Q: With `CC12CC3CC(C)(C1)CC(N)(C3)C2` [memantine] as the compound, how does the tolerability [2] read?
A: Its tolerability is “well tolerated”.

Q: For `CC(C)NCC(O)COc1cccc2ccccc12` (stereo not drawn) [propranolol], which “amnesia by blocking the reconsolidation” value [1] is on record?
A: Its value is “induce amnesia by blocking the reconsolidation of retrieved memories”.

Q: And the “ratings of PTSD symptoms” value (PTSD symptoms)?
A: Its value is “slightly, but significantly, lower”.

Q: What about the “consolidation of emotion-related memory” value (emotion-related memory) of the same compound?
A: Its value is “blocked the consolidation of emotion-related memory”.
